# Laboratory results reported in patent US20250361268A1, “NOVEL ANTI-INFLAMMATORY PEPTIDE AND USE THEREOF” (NOVACELL TECHNOLOGY INC., priority 2022, published 2025).
# Peptide text beside a SMILES is read from it.
# Columns and labels:
# FPR1 = biological target: T1, FPR1 (Homo sapiens, UniProt P21462); test: Change in calcium activity by peptide, FPR1 activation effect; type: cell-based; settings: calcium activity (Fura-2), graded per Table 3, read-out: EC50 for [Ca^2+] FPR1
# T1 sequence (P21462 1-350): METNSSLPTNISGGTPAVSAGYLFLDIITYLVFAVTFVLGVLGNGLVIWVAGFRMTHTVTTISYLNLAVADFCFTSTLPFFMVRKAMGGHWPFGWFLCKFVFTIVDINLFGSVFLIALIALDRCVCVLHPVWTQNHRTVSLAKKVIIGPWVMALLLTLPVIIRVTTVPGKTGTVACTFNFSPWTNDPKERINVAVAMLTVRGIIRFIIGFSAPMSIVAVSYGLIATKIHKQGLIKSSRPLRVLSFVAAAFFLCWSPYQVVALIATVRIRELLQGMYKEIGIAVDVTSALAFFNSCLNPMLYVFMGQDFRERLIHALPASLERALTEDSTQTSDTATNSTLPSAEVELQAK
# In short: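 Calcium flux induced by peptide addition was monitored on a FlexStation 3 plate reader. Before this, cells seeded a day earlier (3×10^5/well) took up the Fura-2 dye for 1 h at 37 °C plus 30 min dark at room temperature.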
# FPR2 = biological target: T2, FPR2 (Homo sapiens, UniProt P25090); test: Change in calcium activity by peptide (Fura-2) in RBL cells overexpressing FPR2; type: cell-based; settings: calcium activity (Fura-2), graded per Table 3, read-out: EC50 for [Ca^2+] FPR2
# T2 construct: expressed in transfected cells; host or cells: RBL cells (RBL-FPR2)
# T2 sequence (P25090 1-351): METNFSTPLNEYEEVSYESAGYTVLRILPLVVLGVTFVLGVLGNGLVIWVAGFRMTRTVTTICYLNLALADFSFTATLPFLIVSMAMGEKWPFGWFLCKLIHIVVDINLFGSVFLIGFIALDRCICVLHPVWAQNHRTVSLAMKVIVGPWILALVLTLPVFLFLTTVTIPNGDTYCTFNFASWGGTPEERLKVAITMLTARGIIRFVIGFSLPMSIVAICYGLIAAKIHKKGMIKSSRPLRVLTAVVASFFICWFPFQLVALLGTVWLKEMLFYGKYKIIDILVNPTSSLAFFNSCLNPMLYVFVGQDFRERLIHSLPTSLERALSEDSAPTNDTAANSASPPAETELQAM
# In short: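 Peptide-induced intracellular calcium change measured by Fura-2 fluorescence on a plate reader. Cells: RBL line overexpressing FPR2, dye-loaded 1 h at 37 °C then 30 min at RT in dark; peptides from 0.5 mM water/50% DMSO stocks, diluted in HBSS with 20 mM HEPES.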
EC50 (FPR1) [nM],EC50 (FPR2) [nM],Structure (SMILES)
1000 to 10000,< 10,CCCC(=O)N[C@@H](Cc1c[nH]cn1)C(=O)N[C@@H](CCCCN)C(=O)N[C@@H](Cc1ccc(O)cc1)C(=O)N[C@@H](Cc1c[nH]c2ccccc12)C(=O)N1CCC[C@H]1C(=O)N[C@H](CCSC)C(N)=O [Peptide 151] (HELM PEPTIDE1{[CCCC(=O)[*:2]].H.K.Y.W.P.[dM].[am]}$$$$V2.0)
1000 to 10000,11 to 100,CSCC[C@@H](NC(=O)[C@H](Cc1ccc(O)cc1)NC(=O)[C@H](Cc1ccc(O)cc1)NC(=O)[C@H](Cc1ccc(O)cc1)NC(=O)[C@H](CCCNC(=N)N)NC(=O)[C@H](Cc1c[nH]c2ccccc12)NC(C)=O)C(N)=O [Peptide 124] (HELM PEPTIDE1{[ac].W.R.Y.Y.Y.[dM].[am]}$$$$V2.0)
> 10000,11 to 100,CSCC[C@H](NC(C)=O)C(=O)N[C@@H](CCCNC(=N)N)C(=O)N[C@@H](Cc1ccc(O)cc1)C(=O)N[C@@H](Cc1ccc(O)cc1)C(=O)N[C@@H](Cc1ccc(O)cc1)C(=O)N[C@H](CCSC)C(N)=O [Peptide 126] (HELM PEPTIDE1{[ac].M.R.Y.Y.Y.[dM].[am]}$$$$V2.0)
> 10000,< 10,CCCCCCCC(=O)N[C@@H](CCSC)C(=O)N[C@@H](CCCNC(=N)N)C(=O)N[C@@H](Cc1ccc(O)cc1)C(=O)N[C@@H](CCCCN)C(=O)N1CCC[C@H]1C(=O)N[C@H](CCSC)C(N)=O [Peptide 57] (HELM PEPTIDE1{[CCCCCCCC(=O)[*:2]].M.R.Y.K.P.[dM].[am]}$$$$V2.0)
> 10000,< 10,CSCC[C@H](NC(=O)[C@@H](N)CCCNC(=N)N)C(=O)N[C@@H](CCCNC(=N)N)C(=O)N[C@@H](Cc1ccc(O)cc1)C(=O)N[C@@H](CCCCN)C(=O)N1CCC[C@H]1C(=O)N[C@H](CCSC)C(N)=O [Peptide 50] (HELM PEPTIDE1{R.M.R.Y.K.P.[dM].[am]}$$$$V2.0)
> 10000,< 10,CCCC(=O)N[C@@H](CCSC)C(=O)N[C@@H](CCCNC(=N)N)C(=O)N[C@@H](Cc1ccc(O)cc1)C(=O)N[C@@H](CCCCN)C(=O)N[C@H](C(=O)N[C@H](CCSC)C(N)=O)C(C)C [Peptide 15] (HELM PEPTIDE1{[CCCC(=O)[*:2]].M.R.Y.K.V.[dM].[am]}$$$$V2.0)
> 10000,< 10,CCCC(=O)N[C@H](C(=O)N[C@@H](CCCCN)C(=O)N[C@@H](Cc1ccc(O)cc1)C(=O)N[C@@H](CCCCN)C(=O)N1CCC[C@H]1C(=O)N[C@H](CCSC)C(N)=O)[C@@H](C)CC [Peptide 144] (HELM PEPTIDE1{[CCCC(=O)[*:2]].I.K.Y.K.P.[dM].[am]}$$$$V2.0)
1000 to 10000,< 10,CSCC[C@H](N)C(=O)N[C@@H](CCCNC(=N)N)C(=O)N[C@@H](Cc1ccc(O)cc1)C(=O)N[C@@H](Cc1ccc(O)cc1)C(=O)N[C@H](C(=O)N[C@H](CCSC)C(N)=O)C(C)C [Peptide 100] (HELM PEPTIDE1{M.R.Y.Y.V.[dM].[am]}$$$$V2.0)
1000 to 10000,< 10,CSCC[C@H](NC(C)=O)C(=O)N[C@@H](CCCNC(=N)N)C(=O)N[C@@H](Cc1ccc(O)cc1)C(=O)N[C@@H](Cc1c[nH]c2ccccc12)C(=O)N1CCC[C@H]1C(=O)N[C@H](CCSC)C(N)=O [Peptide 111] (HELM PEPTIDE1{[ac].M.R.Y.W.P.[dM].[am]}$$$$V2.0)
> 10000,< 10,CCCCCCCC(=O)N1CCC[C@H]1C(=O)N[C@@H](CCSC)C(=O)N[C@@H](CCCCN)C(=O)N[C@@H](Cc1ccc(O)cc1)C(=O)N[C@@H](CCCCN)C(=O)N[C@H](C(=O)N[C@H](CCSC)C(N)=O)C(C)C [Peptide 28] (HELM PEPTIDE1{[CCCCCCCC(=O)[*:2]].P.M.K.Y.K.V.[dM].[am]}$$$$V2.0)
1000 to 10000,< 10,CCCCCCCC(=O)N[C@H](C(=O)N[C@@H](CCCCN)C(=O)N[C@@H](Cc1ccc(O)cc1)C(=O)N[C@@H](CCCCN)C(=O)N[C@H](C(=O)N[C@H](CCSC)C(N)=O)C(C)C)[C@@H](C)CC [Peptide 137] (HELM PEPTIDE1{[CCCCCCCC(=O)[*:2]].I.K.Y.K.V.[dM].[am]}$$$$V2.0)
101 to 1000,< 10,CSCC[C@@H](NC(=O)[C@@H]1CCCN1C(=O)[C@H](Cc1c[nH]c2ccccc12)NC(=O)[C@H](Cc1ccc(O)cc1)NC(=O)[C@H](CCCNC(=N)N)NC(=O)[C@H](Cc1c[nH]c2ccccc12)NC(=O)[C@H](CCCNC(=N)N)NC(C)=O)C(N)=O [Peptide 117] (HELM PEPTIDE1{[ac].R.W.R.Y.W.P.[dM].[am]}$$$$V2.0)
> 10000,< 10,CSCC[C@H](NC(=O)[C@@H]1CCCN1)C(=O)N[C@@H](CCCCN)C(=O)N[C@@H](Cc1ccc(O)cc1)C(=O)N[C@@H](CCCCN)C(=O)N[C@H](C(=O)N[C@H](CCSC)C(N)=O)C(C)C [Peptide 25] (HELM PEPTIDE1{P.M.K.Y.K.V.[dM].[am]}$$$$V2.0)
> 10000,< 10,CSCC[C@@H](NC(=O)[C@H](Cc1ccc(O)cc1)NC(=O)[C@H](Cc1c[nH]c2ccccc12)NC(=O)[C@H](Cc1ccc(O)cc1)NC(=O)[C@H](CCCCN)NC(=O)[C@H](Cc1c[nH]c2ccccc12)NC(=O)[C@H](CCCCN)NC(C)=O)C(N)=O [Peptide 80] (HELM PEPTIDE1{[ac].K.W.K.Y.W.Y.[dM].[am]}$$$$V2.0)
> 10000,< 10,CSCC[C@@H](NC(=O)[C@@H]1CCCN1C(=O)[C@H](CCCCN)NC(=O)[C@H](Cc1ccc(O)cc1)NC(=O)[C@H](CCCNC(=N)N)NC(=O)[C@H](Cc1c[nH]c2ccccc12)NC(=O)[C@@H](N)CCCNC(=N)N)C(N)=O [Peptide 74] (HELM PEPTIDE1{R.W.R.Y.K.P.[dM].[am]}$$$$V2.0)
> 10000,< 10,CSCC[C@@H](NC(=O)[C@H](Cc1ccc(O)cc1)NC(=O)[C@H](CC(C)C)NC(=O)[C@H](Cc1ccc(O)cc1)NC(=O)[C@H](CCCNC(=N)N)NC(=O)[C@H](Cc1c[nH]c2ccccc12)NC(=O)[C@@H](N)CCCNC(=N)N)C(N)=O [Peptide 154] (HELM PEPTIDE1{R.W.R.Y.L.Y.[dM].[am]}$$$$V2.0)
> 10000,< 10,CCCC(=O)N[C@@H](Cc1c[nH]cn1)C(=O)N[C@@H](CCSC)C(=O)N[C@@H](CCCCN)C(=O)N[C@@H](Cc1ccc(O)cc1)C(=O)N[C@@H](Cc1ccc(O)cc1)C(=O)N[C@@H](Cc1ccc(O)cc1)C(=O)N[C@H](CCSC)C(N)=O [Peptide 127] (HELM PEPTIDE1{[CCCC(=O)[*:2]].H.M.K.Y.Y.Y.[dM].[am]}$$$$V2.0)
> 10000,< 10,CSCC[C@@H](NC(=O)[C@@H](NC(=O)[C@H](CCCNC(=N)N)NC(=O)[C@H](Cc1ccc(O)cc1)NC(=O)[C@H](CCCNC(=N)N)NC(=O)[C@H](Cc1c[nH]c2ccccc12)NC(=O)[C@@H](N)CCCNC(=N)N)C(C)C)C(N)=O [Peptide 29] (HELM PEPTIDE1{R.W.R.Y.R.V.[dM].[am]}$$$$V2.0)
1000 to 10000,< 10,CCCC(=O)N[C@@H](CCSC)C(=O)N[C@@H](CCCNC(=N)N)C(=O)N[C@@H](Cc1ccc(O)cc1)C(=O)N[C@@H](Cc1c[nH]c2ccccc12)C(=O)N1CCC[C@H]1C(=O)N[C@H](CCSC)C(N)=O [Peptide 112] (HELM PEPTIDE1{[CCCC(=O)[*:2]].M.R.Y.W.P.[dM].[am]}$$$$V2.0)
> 10000,< 10,CCCC(=O)N[C@@H](Cc1c[nH]cn1)C(=O)N[C@@H](CCSC)C(=O)N[C@@H](CCCNC(=N)N)C(=O)N[C@@H](Cc1ccc(O)cc1)C(=O)N[C@@H](CCCCN)C(=O)N[C@@H](Cc1ccc(O)cc1)C(=O)N[C@H](CCSC)C(N)=O [Peptide 45] (HELM PEPTIDE1{[CCCC(=O)[*:2]].H.M.R.Y.K.Y.[dM].[am]}$$$$V2.0)
101 to 1000,11 to 100,CSCC[C@@H](NC(=O)[C@@H](NC(=O)[C@H](Cc1ccc(O)cc1)NC(=O)[C@H](Cc1ccc(O)cc1)NC(=O)[C@H](CCCNC(=N)N)NC(=O)[C@H](Cc1c[nH]c2ccccc12)NC(C)=O)C(C)C)C(N)=O [Peptide 95] (HELM PEPTIDE1{[ac].W.R.Y.Y.V.[dM].[am]}$$$$V2.0)
> 10000,< 10,CSCC[C@H](NC(=O)[C@@H](N)CCCNC(=N)N)C(=O)N[C@@H](CCCNC(=N)N)C(=O)N[C@@H](Cc1ccc(O)cc1)C(=O)N[C@@H](CCCCN)C(=O)N[C@H](C(=O)N[C@H](CCSC)C(N)=O)C(C)C [Peptide 5] (HELM PEPTIDE1{R.M.R.Y.K.V.[dM].[am]}$$$$V2.0)
1000 to 10000,< 10,CCCC(=O)N[C@@H](Cc1c[nH]cn1)C(=O)N[C@@H](CCSC)C(=O)N[C@@H](CCCNC(=N)N)C(=O)N[C@@H](Cc1ccc(O)cc1)C(=O)N[C@@H](Cc1c[nH]c2ccccc12)C(=O)N[C@@H](Cc1ccc(O)cc1)C(=O)N[C@H](CCSC)C(N)=O [Peptide 93] (HELM PEPTIDE1{[CCCC(=O)[*:2]].H.M.R.Y.W.Y.[dM].[am]}$$$$V2.0)
